The subject of assay [1] is SNU-354 cells. Nature of the assay: Flow cytometry, sub G1 ratio change (Experimental Example 3). It is filed as cell-based, human. The note with it: 10 μM, 24 hours, vehicle = 1.0. As for the experimental part:
SNU-354 cells were seeded in a 90 mm dish, to which vehicle and the compounds of Examples 2˜6 were treated at the concentration of 10 μM each for 24 hours. The cells were collected and washed with cold PBS, followed by reaction in 500 μl of cold 70% ethanol at 4° C. for overnight to fix the cells. The cells were washed with 500 μl of PBS three times, followed by reaction with 500 μl of PBS containing 50 μg/mL propidium iodide (P1) and 50 μl of 1 mg/mL RNAse A at room temperature for 30 minutes in the darkness. Fluorescence of the P1 stained cell was measured by using FACS caliber flow cytometer and cell quest program (Becton Dickinson Immunocytometry Systems, CA, USA). Sub G1 ratio changes of SNU-354 cells induced by the compounds were measured by FACS analysis.

Assay [2] has as its system caspase-3 activity in SNU-354 cells. Kind of assay: Measurement of caspase-3 activity (Experimental Example 4). In kind it is cell-based, human. Details: unit not given here. As for the experimental part: SNU-354 cells treated with the compounds of Example 1˜Example 6 were lysed with lysis buffer (0.5% triton X-100, 20 mM Tris-HCl (pH 7.5), 2 mM magnesium chloride, 1 mM DTT, 1 mM EGTA, 50 mM β-glycerophosphate, 25 mM sodium fluoride, 1 mM Na3VO4, 2 μg/mL leupeptin, 2 μg/mL pepstatin A, 100 μg/mL phenylmethylsulfonyl fluoride, 1 μg/mL antipain). The protease analysis buffer necessary for the reaction (20 mM HEPES (pH 7.5), 10% glycerol, 2 mM DTT) was mixed with 20 μM Ac-DEVD-AMC (BD Biosciences, CA, USA) and cell lysates, followed by reaction at 37° C. for 1 hour. Upon completion of the reaction, caspase-3 activity was measured at 380 nm of excitation and 460 nm of emission with spectrofluorometer (TECAN, Switzerland) and the results are shown in FIG. 25 and Table 12.

The test system of assay [3] is SNU-354 cells. Kind of assay: MTT assay, cell viability. In kind it is cell-based. The note with it: Homo sapiens, SNU-354, read-out: Cell viability (%). The procedure:
Cell viability was measured by MTT assay. SNU-354 cells in the log phase of cell growth curve were distributed in a 24-well plate at the density of 2×10^4 cells/well. […] After allowing enough time for reaction, MTT reagent (MTT dissolved in PBS at the concentration of 5 mg/mL) (Sigma-Aldrich, USA) was added to each well, followed by reaction at 37° C. for 3 hours. Then, the supernatant was eliminated and the precipitated formazan crystals were dissolved in dimethyl sulfoxide, followed by measurement of absorbance with ELISA plate reader.
(Tetrazolium dyes change colour on reduction, which living cells bring about.)

Assay [4] deals with SNU-354 cells. Kind of assay: 3H-thymidine incorporation assay. It is filed as cell-based, human. The note with it: 18˜24 hours. As for the experimental part: SNU-354 cells were distributed in a 6-well plate at the density of 5×10^4 cells/well, followed by culture in FBS-free medium for 24 hours. 24 hours later, the medium was replaced with the fresh one supplemented with FBS, the compounds of Examples 1 and 2 at different concentrations and 1 μCi/mL [^3H]dT (GE Healthcare, UK). 18˜24 hours later, the cells were washed with cold PBS and then fixed with cold 5% trichloroacetic acid. DNA was lysed in […] sodium hydroxide at 37° C. for 1 hour. Then, [^3H]dT incorporated during intracellular DNA synthesis was measured by LSC (liquid scintillation counting). Intracellular DNA synthesis measured above was used as index for the evaluation of cell viability.
On the technique in general: Uptake of a labelled nucleoside into DNA is a usual measure of proliferation.

Another assay concerns the target T1, Cdk7/cyclin H/MAT1 (Homo sapiens, UniProt P50613).
T1 construct: purchased Upstate
Kind of assay: In vitro kinase assay of Cdk7, RNA Pol II-CTD-GST substrate. In kind it is biochemical. To be noted: 0 nM = 100. As for the experimental part: (§1) To kinase assay buffer were added RNA Pol II-CTD-GST protein (Jena Bioscience, Germany) as a substrate, Cdk9/cyclin T1 or Cdk7/cyclin H/MAT1 recombinant protein (Upstate) as an enzyme, 2.5 μCi [γ-32P]ATP, and 100 μM MgAc/ATP. The total reaction volume was adjusted to 50 μl. Kinase assay reaction was induced at 30° C. for 20 minutes. Upon completion of the reaction, electrophoresis was performed on 8% SDS-polyacrylamide gel. The activities of Cdk7 and Cdk9 over the concentrations of the compounds of Example 1 and Example 2 were confirmed by autoradiography and the results are shown in FIG. 5˜FIG. 8 and Table 3.
(§2) The intensity of bands was analyzed by densitometry (GS-800, Bio-Rad).

The next assay deals with T2, Cdk9/cyclin T1 (Homo sapiens, UniProt P50750).
T2 construct: purchased Upstate
Nature of the assay: In vitro kinase assay of Cdk9, RNA Pol II-CTD-GST substrate. The note with it: 0 nM = 100. It is filed as biochemical. As for the experimental part:
as §1, §2

The next assay concerns Cdk7. Kind of assay: Western blotting of Cdk7 activity (phospho RNA Pol II Ser 5). The note with it: 0 nM = 100. It is filed as cell-based, human. The procedure:
(§3) After treating the compound of Example 2 to SNU-354 cells, cell pellet was lysed with lysis buffer (0.5% triton X-100, 20 mM Tris-HCl (pH 7.5), 2 mM magnesium chloride, 1 mM DTT, 1 mM EGTA, 50 mM β-glycerophosphate, 25 mM sodium fluoride, 1 mM Na3VO4, 2 μg/mL leupeptin, 2 μg/mL pepstatin A, 100 μg/mL phenylmethylsulfonyl fluoride, and 1 μg/mL antipain) at 4° C. for 1 hour, followed by quantification of protein. A proper amount of protein was electrophoresed on SDS-PAGE gel and then transferred onto polyvinylidene difluoride membrane (Millipore Co., Bedford, Mass.). The membrane was reacted in inhibiting solution (PBS, 5% skim milk, 0.1% tween-20) at room temperature for 1˜2 hours. The membrane was reacted with the primary antibody (goat anti-phospho-Rb, rabbit anti-nucleolin) diluted in the inhibiting solution (1:1000). Then, the membrane was washed with PBST, followed by reaction with the proper secondary antibody (horseradish peroxidase (HRP) conjugated) at room temperature for 1 hour.
(§4) Experiment was performed by the same manner as described in step 2 of Experimental Example 1 except that rabbit anti-phospho RNA Pol II (Ser 5) and rabbit anti-phospho RNA Pol II (Ser 2) (from Bethyl, TX, USA) were used as primary antibodies. The results are shown FIG. 9˜FIG. 12, and Table 4 and Table 5.

The next assay has as its system Cdk9. Kind of assay: Western blotting of Cdk9 activity (phospho RNA Pol II Ser 2). In kind it is cell-based, human. To be noted: 0 nM = 100. The procedure: as §3, §4
In general terms: Immunoblotting shows a protein as a band on a membrane.

Six molecules from patent US9062088B2, “CDK-inhibiting pyrrolopyrimidine carboxamide derivative or pharmaceutically acceptable salt thereof, and pharmaceutical composition containing the same as active ingredient for preventing or treating hepatocellular carcinoma” (SNU R&DB Foundation, priority 2010, dated 2015) can be followed below.

Each structure is given as a SMILES string. “And” between values parts separate entries of the source, which are not always exact repeats. Equal values may be shown once.

T1 sequence (P50613 whole entry): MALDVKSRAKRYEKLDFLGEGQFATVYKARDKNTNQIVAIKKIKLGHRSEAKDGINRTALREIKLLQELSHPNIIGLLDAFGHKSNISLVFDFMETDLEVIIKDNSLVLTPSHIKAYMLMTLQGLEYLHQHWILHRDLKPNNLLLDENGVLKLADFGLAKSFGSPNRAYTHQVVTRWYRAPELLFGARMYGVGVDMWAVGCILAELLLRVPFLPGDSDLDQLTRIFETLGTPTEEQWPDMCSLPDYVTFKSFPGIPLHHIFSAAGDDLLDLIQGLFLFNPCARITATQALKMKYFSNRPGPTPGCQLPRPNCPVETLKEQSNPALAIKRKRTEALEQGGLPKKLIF
T1 sequence (P51946 whole entry partner): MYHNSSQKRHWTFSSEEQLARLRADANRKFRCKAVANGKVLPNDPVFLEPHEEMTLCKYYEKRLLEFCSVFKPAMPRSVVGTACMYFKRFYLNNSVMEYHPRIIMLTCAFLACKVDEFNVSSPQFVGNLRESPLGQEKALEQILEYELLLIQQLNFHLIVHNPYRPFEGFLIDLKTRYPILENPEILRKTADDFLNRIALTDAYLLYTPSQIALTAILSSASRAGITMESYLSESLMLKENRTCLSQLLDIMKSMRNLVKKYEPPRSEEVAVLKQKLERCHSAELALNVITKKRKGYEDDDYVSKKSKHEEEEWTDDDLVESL
T1 sequence (P51948 whole entry partner): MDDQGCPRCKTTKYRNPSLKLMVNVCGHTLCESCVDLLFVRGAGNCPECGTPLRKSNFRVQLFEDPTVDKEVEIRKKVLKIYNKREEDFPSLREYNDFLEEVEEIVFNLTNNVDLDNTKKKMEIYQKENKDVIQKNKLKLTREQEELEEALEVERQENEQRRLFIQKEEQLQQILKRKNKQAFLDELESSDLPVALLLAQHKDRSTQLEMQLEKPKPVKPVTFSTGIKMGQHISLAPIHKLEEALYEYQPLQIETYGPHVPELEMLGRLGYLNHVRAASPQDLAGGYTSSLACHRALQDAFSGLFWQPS
T2 sequence (P50750 whole entry): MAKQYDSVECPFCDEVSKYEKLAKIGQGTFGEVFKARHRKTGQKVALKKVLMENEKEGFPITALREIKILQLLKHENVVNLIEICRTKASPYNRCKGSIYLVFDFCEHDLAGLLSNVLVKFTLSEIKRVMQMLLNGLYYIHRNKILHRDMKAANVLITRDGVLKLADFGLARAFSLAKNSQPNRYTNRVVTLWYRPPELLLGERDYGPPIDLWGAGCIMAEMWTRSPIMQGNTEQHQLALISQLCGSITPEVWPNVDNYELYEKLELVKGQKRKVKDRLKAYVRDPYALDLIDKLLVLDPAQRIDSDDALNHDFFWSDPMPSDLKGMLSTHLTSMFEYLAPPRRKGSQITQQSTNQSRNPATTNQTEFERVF
T2 sequence (O60563 whole entry partner): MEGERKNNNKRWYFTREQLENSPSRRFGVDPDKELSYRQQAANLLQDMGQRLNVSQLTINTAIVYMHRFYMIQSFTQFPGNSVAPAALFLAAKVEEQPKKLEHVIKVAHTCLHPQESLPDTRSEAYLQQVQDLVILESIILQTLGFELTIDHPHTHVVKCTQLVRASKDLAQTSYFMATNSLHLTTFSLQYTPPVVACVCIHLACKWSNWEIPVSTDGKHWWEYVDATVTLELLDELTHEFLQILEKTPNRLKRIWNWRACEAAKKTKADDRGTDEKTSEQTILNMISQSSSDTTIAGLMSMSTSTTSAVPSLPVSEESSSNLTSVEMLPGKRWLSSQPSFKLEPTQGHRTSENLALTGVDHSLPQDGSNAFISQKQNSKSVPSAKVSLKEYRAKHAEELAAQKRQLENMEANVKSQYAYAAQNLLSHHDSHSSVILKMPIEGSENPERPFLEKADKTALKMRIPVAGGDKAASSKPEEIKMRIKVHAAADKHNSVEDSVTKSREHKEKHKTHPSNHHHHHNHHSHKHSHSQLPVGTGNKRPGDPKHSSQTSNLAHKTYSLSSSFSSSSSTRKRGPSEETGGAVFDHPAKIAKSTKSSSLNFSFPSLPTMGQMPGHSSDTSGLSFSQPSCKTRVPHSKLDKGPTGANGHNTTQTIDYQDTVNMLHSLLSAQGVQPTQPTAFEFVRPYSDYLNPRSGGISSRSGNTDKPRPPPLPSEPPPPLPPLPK

As to `CCC(=O)OC[C@@H]1O[C@H](n2c(Br)c(C(N)=O)c3c(N)ncnc32)[C@@H](O)[C@@H]1O` [Example 6, ((2S,3S,4S,5S)-5-(4-amino-6-bromo-5-carbamoyl-7H-pyrrolo[2,3-d]pyrimidin-7-yl)-3,4-dihydroxytetrahydrofuran-2-yl)methyl propionate], in the assay on SNU-354 cells [1], the “sub G1 ratio change” value was determined as 5.9. The Caspase-3 activity was 10.7 in assay [2] (5 μM) and 11.7 in assay [2] (10 μM).

Consider `CC(=O)O[C@H]1[C@H](OC(C)=O)[C@@H](n2cnc(N)c3c(C(N)=O)c(Br)nc2-3)O[C@H]1COC(=O)C(C)C` [Example 4, (2S,3S,4R,5S)-2-(4-amino-6-bromo-5-carbamoyl-1H-pyrrolo[2,3-d]pyrimidin-1-yl)-5-(isobutyryloxymethyl)tetrahydrofuran-3,4-diyl diacetate], for which the “sub G1 ratio change” value in the assay on SNU-354 cells [1] is reported as 5.5. Also, the Caspase-3 activity in assay [2] (5 μM) came out at 5.1; in assay [2] (10 μM) it was 7.0.

Consider `CC(C)(C)C(=O)OC[C@@H]1O[C@H](n2cnc(N)c3c(C(N)=O)c(Br)nc2-3)[C@H](O)[C@H]1O` [Example 3, ((2S,3R,4R,5S)-5-(4-amino-6-bromo-5-carbamoyl-1H-pyrrolo[2,3-d]pyrimidin-1-yl)-3,4-dihydroxy-tetrahydrofuran-2-yl)methyl pivalate], for which, in the assay with SNU-354 cells [1], the “sub G1 ratio change” value is reported as 5.7. Moreover, the Caspase-3 activity was 8.2 in assay [2] (5 μM) and 7.8 in assay [2] (10 μM).

The viability is a read-out of living cells in per cent, often relative to untreated cells. As to `Cn1cnc2c(NCc3ccccc3)nc(NCCO)nc21` [Olomoucine, olomoucine, reference compound], in the assay on SNU-354 cells [3], the viability at 0.5 µM turned out to be 98.9%, the viability at 1 µM was 99.9%, the viability at 2 µM turned out to be 99.9% and the viability at 5 µM was 98.5%. Besides, in the assay on SNU-354 cells [3], the viability at 10 µM is 101% and the viability at 50 µM was 96%. The “^3H-thymidine incorporation (%)” value with SNU-354 cells [4] (5.0 μM) came out at 99.7%. In addition, in the assay with SNU-354 cells [4] (10.0 μM), the “^3H-thymidine incorporation (%)” value came out at 96.3%. Further, in the assay on SNU-354 cells [4] (50.0 μM), the “^3H-thymidine incorporation (%)” value was found to be 77.2%.

Consider `CC[C@H](CO)Nc1nc(NCc2ccccc2)c2ncn(C(C)C)c2n1` [Roscosvitine, roscosvitine, reference compound], for which the Cdk7 activity was found to be 92.0% on Cdk7/cyclin H/MAT1 (10 nM); 43.4% at Cdk7/cyclin H/MAT1 (100 nM); 17.4% on Cdk7/cyclin H/MAT1 (1000 nM); 96.0% in the assay on Cdk7 (0.1 nM); 73.1% with Cdk7 (0.5 nM); 51.5% in the assay with Cdk7 (1 nM). Besides, the Cdk7 activity in the assay with Cdk7 (5 nM) is listed as 51.6%; in the assay with Cdk7 (10 nM) it was 49.9%; with Cdk7 (50 nM), 4.0%. Also, the Cdk9 activity on Cdk9/cyclin T1 (10 nM) is 55.6%; on Cdk9/cyclin T1 (100 nM), 44.6%; on Cdk9/cyclin T1 (1000 nM), 42.2%; with Cdk9 (0.1 nM), 69.3%; in the assay with Cdk9 (0.5 nM) it was 48.5%; in the assay on Cdk9 (1 nM), 38.1%. The results for the Cdk9 activity with Cdk9 (5 nM), in the assay with Cdk9 (10 nM) and in the assay with Cdk9 (50 nM) were 35.7%, 34.6% and 2.2%, respectively. Also, the “^3H-thymidine incorporation (%)” value in the assay with SNU-354 cells [4] (5.0 μM) is reported as 98.2%; in the assay on SNU-354 cells [4] (10.0 μM) it was 91.0%; in the assay on SNU-354 cells [4] (50.0 μM), 47.2%.

Take `NC(=O)c1c(Br)n([C@H]2O[C@@H](COC(=O)c3ccccc3)[C@@H](O)[C@@H]2O)c2ncnc(N)c12` [Example 5, ((2S,3S,4S,5S)-5-(4-amino-6-bromo-5-carbamoyl-7H-pyrrolo[2,3-d]pyrimidin-7-yl)-3,4-dihydroxytetrahydrofuran-2-yl)methyl benzoate]: the “sub G1 ratio change” value in the assay on SNU-354 cells [1] was 5.5 and 6.0. Further, the Caspase-3 activity in assay [2] (5 μM) is recorded as 9.0; in assay [2] (10 μM), 10.3.
